Patent publication US20240216462A1, “PHARMACEUTICAL COMPOSITION FOR ENHANCING IMMUNITY OR ANTI-CANCER ACTIVITY INCLUDING EXTRACT OF PSEUDOLYSIMACHION NAKAIANUM (OHWI) T.YAMAZ AS ACTIVE INGREDIENT” (KOREA INSTITUTE OF SCIENCE AND TECHNOLOGY, priority 2022, published 2024)

Legend:
[1] = system: CD4+ T cells induced to differentiate into Treg; experiment: Differentiation and function of Treg cells (Foxp3 expression); format: cell-based, C57BL/6J mice; settings: 25 μM final concentration; culture for 3 days in medium containing IL-2 and TGF-beta1; control about 19%
Procedure: • 8-week-old C57BL/6J mice were purchased and adapted for 1 week, and then CD4+ T cells were isolated from spleens and lymph nodes. Differentiation of regulatory T cells was transferred through a medium containing IL-2 and TGF-beta1, and through culture for 3 days, it was confirmed that about 19% of a Foxp3 transcription factor was expressed in the control group. Each substance was treated at a final concentration of 25 μM.

[2] = system: CD4+ T cells induced to differentiate into Th17; experiment: Differentiation and functional enhancement activity of Th17 cells (IL-17 expression); format: cell-based, C57BL/6J mice; settings: 25 μM final concentration; culture for 3 days under Th17 differentiation conditions; Veh control about 35%
Description: 8-week-old C57BL/6J mice were purchased and adapted for 1 week, and then CD4+ T cells were isolated from spleens and lymph nodes. Th17 cell differentiation was induced by media containing IL-6, TGF-beta1, IL-1beta, anti-IFN-gamma, and anti-IL-4, and through culturing for 3 days, it was confirmed that about 35% of IL-17 cytokine was expressed in a Veh group, which was a control group treated with only a solvent of the compound, thereby establishing basic conditions for the differentiation of Th17 cells. Under the conditions of differentiation of Th17 cells, each substance was treated at a final concentration of 25 μM.
As a result, as may be seen in the drawings, it was confirmed that Compounds 1 to 3 increased the IL-17 cytokine expression by 70%, 63%, and 62%, respectively, and through this, it was confirmed that the three compounds were able to improve the differentiation and function of Th17 cells.

SMILES: CO[C@@H]1C[C@H]2[C@H](OC(=O)c3ccc(O)c(O)c3)[C@@H]3O[C@]3(CO)[C@H]2C(O[C@@H]2O[C@H](CO)[C@@H](O)[C@H](O)[C@H]2O)O1 (stereo partly drawn) [Compound 1, veroninakaioside G]
- reduced the Foxp3 transcription factor expression [1]: 4.4%
- increased the IL-17 cytokine expression [2]: 70%

SMILES: COc1ccc(CCO[C@@H]2O[C@H](CO)[C@@H](OC(=O)/C=C/c3ccc(O)c(OC)c3)[C@H](O[C@@H]3O[C@H](CO)[C@@H](O)[C@H](O)[C@H]3O)[C@H]2O[C@@H]2O[C@H](CO)[C@@H](O)[C@H](O)[C@H]2O)cc1O [Compound 2, chionoside I]
- reduced the Foxp3 transcription factor expression [1]: 8.3%
- increased the IL-17 cytokine expression [2]: 63%

SMILES: COc1cc(/C=C/C(=O)OC[C@H]2O[C@@H](OCCc3ccc(O)c(OC)c3)[C@H](O)[C@@H](O[C@@H]3O[C@H](CO)[C@@H](O)[C@H](O)[C@H]3O[C@@H]3O[C@H](CO)[C@@H](O)[C@H](O)[C@H]3O)[C@@H]2O)ccc1O [Compound 3, veroninakaioside H]
- reduced the Foxp3 transcription factor expression [1]: 6.6%
- increased the IL-17 cytokine expression [2]: 62%
